The values that follow come from US8802678B2, “Carbonylated (aza) cyclohexanes as dopamine D3 receptor ligands” (Bioprojet, priority 2006, dated 2014).

What is called melting point is the temperature of the solid-liquid transition.

`COCC(=O)N[C@H]1CC[C@H](CCN2CCN(c3cc(C#N)cc(C(F)(F)F)c3)CC2)CC1` [Example 139, N-(4-{2-[4-(3-Cyano-5-trifluoromethylphenyl)piperazin-1-yl]ethyl}cyclohexyl)-2-methoxyacetamide] gave a melting point of 140 °C.

Regarding `CCOCC(=O)N[C@H]1CC[C@H](CCN2CCN(c3cc(C#N)cc(C(F)(F)F)c3)CC2)CC1` [Example 140, N-(4-{2-[4-(3-Cyano-5-trifluoromethylphenyl)piperazin-1-yl]ethyl}cyclohexyl)-2-ethoxyacetamide], the melting point was 133 °C.

With `N#CCC(=O)N[C@H]1CC[C@H](CCN2CCN(c3cccc(Cl)c3Cl)CC2)CC1` [Example 143, 2-Cyano-N-(4-{2-[4-(2,3-dichlorophenyl)piperazin-1-yl]ethyl}cyclohexyl)acetamide], the melting point was found to be 188 °C. `CC(=O)NCC(=O)N[C@H]1CC[C@H](CCN2CCN(c3cccc(F)c3F)CC2)CC1` [Example 145, 2-Acetylamino-N-(4-{2-[4-(2,3-difluorophenyl)piperazin-1-yl]ethyl}cyclohexyl)acetamide] came in with a melting point of 218 °C. To `Cc1cc(C)cc(N2CCN(CC[C@H]3CC[C@H](NC(=O)CC#N)CC3)CC2)c1` [Example 148, 2-Cyano-N-(4-{2-[4-(3,5-dimethylphenyl)piperazin-1-yl]ethyl}cyclohexyl)acetamide] belongs 192 °C; to `CCc1cccc(N2CCN(CC[C@H]3CC[C@H](NC(=O)CC#N)CC3)CC2)c1` [Example 149, 2-Cyano-N-(4-{2-[4-(3-ethylphenyl)piperazin-1-yl]ethyl}cyclohexyl)acetamide], 142 °C. To `CN(C)c1cccc(N2CCN(CC[C@H]3CC[C@H](NC(=O)CC#N)CC3)CC2)c1` [Example 150, 2-Cyano-N-(4-{2-[4-(3-dimethylaminophenyl)piperazin-1-yl]ethyl}cyclohexyl)acetamide] belongs 177 °C; to `N#CCC(=O)N[C@H]1CC[C@H](CCN2CCN(c3cc(Cl)cc(Cl)c3)CC2)CC1` [Example 151, 2-Cyano-N-(4-{2-[4-(3,5-dichlorophenyl)piperazin-1-yl]ethyl}cyclohexyl)acetamide], 200 °C; to `Cc1ccc(C)c(N2CCN(CC[C@H]3CC[C@H](NC(=O)CC#N)CC3)CC2)c1` [Example 152, 2-Cyano-N-(4-{2-[4-(2,5-dimethylphenyl)piperazin-1-yl]ethyl}cyclohexyl)acetamide], 184 °C.

Compound `CC(=O)N1CCC(C(=O)N[C@H]2CC[C@H](CCN3CCN(c4cccc(C(F)(F)F)c4)CC3)CC2)CC1` [Example 153, 1-Acetylpiperidine-4-carboxylic acid (4-{2-[4-(3-trifluoro-methylphenyl)piperazin-1-yl]ethyl}cyclohexyl)amide] displayed a melting point of 173 °C.

Compound `Cc1ccc(Cl)cc1N1CCN(CC[C@H]2CC[C@H](NC(=O)CC#N)CC2)CC1` [Example 155, N-(4-{2-[4-(5-Chloro-2-methylphenyl)piperazin-1-yl]ethyl}cyclohexyl)-2-cyanoacetamide] yielded a melting point of 171 to 172 °C. As for `N#CCC(=O)N[C@H]1CC[C@H](CCN2CCN(c3cccc(Cl)c3)CC2)CC1` [Example 156, N-(4-{2-[4-(3-Chlorophenyl)-piperazin-1-yl]ethyl}cyclohexyl)-2-cyanoacetamide], the figure is 186 to 187 °C; as for `N#CCC(=O)N[C@H]1CC[C@H](CCN2CCN(c3cccc(OC(F)(F)F)c3)CC2)CC1` [Example 157, 2-Cyano-N-(4-{2-[4-(3-trifluoromethoxyphenyl)piperazin-1-yl]ethyl}cyclohexyl)acetamide], 173 to 174 °C.

The compound `N#CCC(=O)N[C@H]1CC[C@H](CCN2CCN(c3cccc(C(F)(F)F)c3F)CC2)CC1` [Example 158, 2-Cyano-N-(4-{2-[4-(2-fluoro-3-trifluoromethylphenyl)piperazin-1-yl]ethyl}cyclohexyl)acetamide] came in with a melting point of 194 °C. Take `N#CCC(=O)N[C@H]1CC[C@H](CCN2CCN(c3cc(F)cc(F)c3)CC2)CC1` [Example 159, 2-Cyano-N-(4-{2-[4-(3,5-difluorophenyl)piperazin-1-yl]ethyl}cyclohexyl)acetamide trans/cis 95/5]: the melting point was 196 °C. Consider `COc1cc(N2CCN(CC[C@H]3CC[C@H](NC(=O)CC#N)CC3)CC2)cc(C(F)(F)F)c1` [Example 160, 2-Cyano-N-(4-{2-[4-(3-methoxy-5-trifluoromethylphenyl)piperazin-1-yl]ethyl}cyclohexyl)acetamide], for which the melting point is 183 to 184 °C. As for `N#CCCCC(=O)N[C@H]1CC[C@H](CCN2CCN(c3cccc(C(F)(F)F)c3)CC2)CC1` [Example 161, 4-Cyano-N-(4-{2-[4-(3-trifluoromethylphenyl)piperazin-1-yl]ethyl}cyclohexyl)butanamide], the melting point amounted to 149 °C. For the compound `N#CCC(=O)N[C@H]1CC[C@H](CCN2CCN(c3ccc(F)cc3F)CC2)CC1` [Example 162, 2-Cyano-N-(4-{2-[4-(2,4-difluorophenyl)piperazin-1-yl]ethyl}cyclohexyl)acetamide], the melting point came out at 188 °C. In turn, `COc1ccc(C(F)(F)F)cc1N1CCN(CC[C@H]2CC[C@H](NC(=O)CC#N)CC2)CC1` [Example 165, 2-Cyano-N-(4-{2-[4-(2-methoxy-5-trifluoromethylphenyl)piperazin-1-yl]ethyl}cyclohexyl)acetamide] gave a melting point of 183 °C. The compound `Cc1cccc(N2CCN(CC[C@H]3CC[C@H](NC(=O)CC#N)CC3)CC2)c1` [Example 166, 2-Cyano-N-{4-[2-(4-m-tolylpiperazin-1-yl)ethyl]cyclohexyl}acetamide] returned a melting point of 175 °C. To `CCN(CC)CCC(=O)N[C@H]1CC[C@H](CCN2CCN(c3cccc(C(F)(F)F)c3)CC2)CC1` [Example 167, 3-Diethylamino-N-(4-{2-[4-(3-trifluoromethylphenyl)piperazin-1-yl]ethyl}cyclohexyl)propanamide trans/cis 85/15] belongs 77 °C; to `CC(C)(C)c1cccc(N2CCN(CC[C@H]3CC[C@H](NC(=O)CC#N)CC3)CC2)c1` [Example 169, N-(4-{2-[4-(3-tert-Butylphenyl)piperazin-1-yl]ethyl}cyclohexyl)-2-cyanoacetamide], 150 °C. Compound `CCOc1cccc(N2CCN(CC[C@H]3CC[C@H](NC(=O)CC#N)CC3)CC2)c1` [Example 170, 2-Cyano-N-(4-{2-[4-(3-ethoxyphenyl)piperazin-1-yl]ethyl}cyclohexyl)acetamide] came in with a melting point of 157 to 159 °C. As for `N#CCC(=O)N[C@H]1CC[C@H](CCN2CCN(c3cc(Cl)ccc3F)CC2)CC1` [Example 171, N-(4-{2-[4-(5-Chloro-2-fluorophenyl)piperazin-1-yl]ethyl}cyclohexyl)-2-cyanoacetamide], the figure is 200 °C; as for `N#CCCCC(=O)N[C@H]1CC[C@H](CCN2CCN(c3cccc(C(F)(F)F)c3F)CC2)CC1` [Example 172, 4-Cyano-N-(4-{2-[4-(2-fluoro-3-trifluoromethylphenyl)piperazin-1-yl]ethyl}cyclohexyl)butanamide], 158 to 162 °C. To `N#CCC(=O)N[C@H]1CC[C@H](CCN2CCN(c3csc4cc(C(F)(F)F)ccc34)CC2)CC1` [Example 173, 2-Cyano-N-(4-{2-[4-(6-trifluoromethylbenzo[b]thiophen-3-yl)piperazin-1-yl]ethyl}cyclohexyl)acetamide] belongs 216 °C; to `N#CCC(=O)N[C@H]1CC[C@H](CCN2CCN(c3cc(C(F)(F)F)ccc3F)CC2)CC1` [Example 174, 2-Cyano-N-(4-{2-[4-(2-fluoro-5-trifluoromethylphenyl)piperazin-1-yl]ethyl}cyclohexyl)acetamide], 197 °C; to `COc1ccc(Cl)cc1N1CCN(CC[C@H]2CC[C@H](NC(=O)CC#N)CC2)CC1` [Example 176, N-(4-{2-[4-(5-Chloro-2-methoxyphenyl)piperazin-1-yl]ethyl}cyclohexyl)-2-cyanoacetamide], 180 °C. As for `CC(C)(C)c1nc(N2CCN(CC[C@H]3CC[C@H](NC(=O)CC#N)CC3)CC2)cc(C(F)(F)F)n1` [Example 177, N-(4-{2-[4-(2-tert-Butyl-6-trifluoromethylpyrimidin-4-yl)piperazin-1-yl]ethyl}cyclohexyl)-2-cyanoacetamide trans/cis 85/15], the figure is 188 °C. Compound `Cc1c(N2CCN(CC[C@H]3CC[C@H](NC(=O)CC#N)CC3)CC2)cccc1C(F)(F)F` [Example 178, 2-Cyano-N-(4-{2-[4-(2-methyl-3-trifluoromethylphenyl)piperazin-1-yl]ethyl}cyclohexyl)acetamide] gave a melting point of 181 °C. In the case of `Cc1ccc(Cl)cc1N1CCN(CC[C@H]2CC[C@H](NC(=O)CC(F)(F)F)CC2)CC1` [Example 179, N-(4-{2-[4-(5-Chloro-2-methylphenyl)piperazin-1-yl]ethyl}cyclohexyl)-3,3,3-trifluoropropanamide], the melting point was in the range of 177 to 178 °C. `COc1cc(OC)cc(N2CCN(CC[C@H]3CC[C@H](NC(=O)CC#N)CC3)CC2)c1` [Example 180, 2-Cyano-N-(4-{2-[4-(3,5-dimethoxyphenyl)piperazin-1-yl]ethyl}cyclohexyl)acetamide] returned a melting point of 181 to 183 °C. To `N#CCC(=O)N[C@H]1CC[C@H](CCN2CCN(c3cc(F)cc(Cl)c3)CC2)CC1` [Example 181, N-(4-{2-[4-(3-Chloro-5-fluorophenyl)piperazin-1-yl]ethyl}cyclohexyl)-2-cyanoacetamide] belongs 181 to 183 °C; to `CSc1cccc(N2CCN(CC[C@H]3CC[C@H](NC(=O)CC#N)CC3)CC2)c1` [Example 182, 2-Cyano-N-(4-{2-[4-(3-methylsulfanylphenyl)piperazin-1-yl]ethyl}cyclohexyl)acetamide], 132 °C; to `N#CCC(=O)N[C@H]1CC[C@H](CCN2CCN(c3cccc4ccccc34)CC2)CC1` [Example 183, 2-Cyano-N-{4-[2-(4-naphthalen-1-ylpiperazin-1-yl)ethyl]cyclohexyl}acetamide], 174 °C.
